Test results taken from PubChem BioAssay AID1845213 (Molecular Pharmacology Branch, DTP, NCI, 2023).
pIC50: −log10 of the molar value. Active and inactive are the calls of the source. How the source made its calls: active means viability on the fitted dose curve at most 10% of control; inactive means the rest.

System: NCI-H841 complex tumor spheroid viability
Experiment: Anticancer human tumor NCI-H841 cell line growth inhibition;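 on pIC50: spheroids exposed to compounds for 7 days before readout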;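 on viability, T/C: spheroids exposed to compounds for 7 days before readout; 100% = DMSO vehicle control wells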
Details: for pIC50: curve of first compound; for viability, T/C: stronger effect = lower value; for IC50: compound alone
Summary of the method: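 Complex spheroids of malignant cells with endothelial cells and mesenchymal stem cells; agents alone or combined, from near clinical Cmax (or 10 microM if unknown) down in half-log steps, 0.25% DMSO final.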

[1] = second compound 1 µM, first compound 0.0949 µM
[2] = second compound 1 µM, first compound 0.3 µM
[3] = second compound 1 µM, first compound 0.949 µM
[4] = second compound 1 µM, first compound 3 µM
[5] = second compound 3.16 µM, first compound 0.0949 µM
[6] = second compound 3.16 µM, first compound 0.3 µM
[7] = second compound 3.16 µM, first compound 0.949 µM
[8] = second compound 3.16 µM, first compound 3 µM
[9] = second compound 10 µM, first compound 0.0949 µM
[10] = second compound 10 µM, first compound 0.3 µM
[11] = second compound 10 µM, first compound 0.949 µM
[12] = second compound 10 µM, first compound 3 µM
[13] = second compound 31.6 µM, first compound 0.0949 µM
[14] = second compound 31.6 µM, first compound 0.3 µM
[15] = second compound 31.6 µM, first compound 0.949 µM
[16] = second compound 31.6 µM, first compound 3 µM
[17] = second compound 100 µM, first compound 0.0949 µM
[18] = second compound 100 µM, first compound 0.3 µM
[19] = second compound 100 µM, first compound 0.949 µM
[20] = second compound 100 µM, first compound 3 µM

CC1COCCN1c1cc(-c2ccnn2C)c2ccnc(-c3ccn[nH]3)c2n1 (stereo unspecified) + COc1cc2c(cc1O)CCNC21CSC2c3c(OC(C)=O)c(C)c4c(c3C(COC1=O)N1C(O)C3Cc5cc(C)c(OC)c(O)c5C(C21)N3C)OCO4
active: viability, T/C (second compound 30 pM, first compound 0.1 µM) 3.12% | viability, T/C (second compound 30 pM, first compound 0.316 µM) 1.47% | viability, T/C (second compound 30 pM, first compound 1 µM) 0.86% | viability, T/C (second compound 30 pM, first compound 3.16 µM) 1.08% | viability, T/C (second compound 30 pM, first compound 10 µM) 1.34% | viability, T/C (second compound 94.9 pM, first compound 0.0316 µM) 4.85% | viability, T/C (second compound 94.9 pM, first compound 0.1 µM) 0.92% | viability, T/C (second compound 94.9 pM, first compound 0.316 µM) 0.73% | viability, T/C (second compound 94.9 pM, first compound 1 µM) 0.72% | viability, T/C (second compound 94.9 pM, first compound 3.16 µM) 0.85% | viability, T/C (second compound 94.9 pM, first compound 10 µM) 1.34% | viability, T/C (second compound 0.0003 µM, first compound 0.0316 µM) 0.85% | viability, T/C (second compound 0.0003 µM, first compound 0.1 µM) 0.44% | viability, T/C (second compound 0.0003 µM, first compound 0.316 µM) 0.46% | viability, T/C (second compound 0.0003 µM, first compound 1 µM) 0.56% | viability, T/C (second compound 0.0003 µM, first compound 3.16 µM) 0.59% | viability, T/C (second compound 0.0003 µM, first compound 10 µM) 0.82% | viability, T/C (second compound 0.000949 µM, first compound 0.0316 µM) 0.34% | viability, T/C (second compound 0.000949 µM, first compound 0.1 µM) 0.28% | viability, T/C (second compound 0.000949 µM, first compound 0.316 µM) 0.24% | viability, T/C (second compound 0.000949 µM, first compound 1 µM) 0.15% | viability, T/C (second compound 0.000949 µM, first compound 3.16 µM) 0.06% | viability, T/C (second compound 0.000949 µM, first compound 10 µM) 0.21% | viability, T/C (second compound 0.003 µM, first compound 0.0316 µM) 0.12% | viability, T/C (second compound 0.003 µM, first compound 0.1 µM) 0.12% | viability, T/C (second compound 0.003 µM, first compound 0.316 µM) 0.11% | viability, T/C (second compound 0.003 µM, first compound 1 µM) 0.1% | viability, T/C (second compound 0.003 µM, first compound 3.16 µM) 0.11% | viability, T/C (second compound 0.003 µM, first compound 10 µM) 0.17%
> 7.50: pIC50 (second compound 30 pM) | pIC50 (second compound 94.9 pM) | pIC50 (second compound 0.0003 µM) | pIC50 (second compound 0.000949 µM) | pIC50 (second compound 0.003 µM)
inactive: viability, T/C (second compound 30 pM, first compound 0.0316 µM) 26.5%

O=C(c1cc(Cc2n[nH]c(=O)c3ccccc23)ccc1F)N1CCN(C(=O)C2CC2)CC1 + Cn1nnc2c(C(N)=O)ncn2c1=O
> 7.02: pIC50 (second compound 100 µM)
active: viability, T/C (second compound 1 µM, first compound 30 µM) 7.71% | viability, T/C (second compound 3.16 µM, first compound 30 µM) 7.81% | viability, T/C [12] 9.01% | viability, T/C (second compound 10 µM, first compound 9.49 µM) 6.29% | viability, T/C (second compound 10 µM, first compound 30 µM) 3.58% | viability, T/C [15] 4.8% | viability, T/C [16] 9.51% | viability, T/C (second compound 31.6 µM, first compound 9.49 µM) 3.15% | viability, T/C (second compound 31.6 µM, first compound 30 µM) 4.15% | viability, T/C [19] 4.23% | viability, T/C [20] 5.1% | viability, T/C (second compound 100 µM, first compound 9.49 µM) 3.82% | viability, T/C (second compound 100 µM, first compound 30 µM) 5.19%
5.30: pIC50 (second compound 3.16 µM)
inactive: viability, T/C [1] 96.6% | viability, T/C [2] 99.7% | viability, T/C [3] 87.6% | outcome [4] | viability, T/C (second compound 1 µM, first compound 9.49 µM) 36.1% | viability, T/C [5] 104% | viability, T/C [6] 99.6% | viability, T/C [7] 95.3% | viability, T/C [8] 77.5% | viability, T/C (second compound 3.16 µM, first compound 9.49 µM) 14.7% | outcome [9] | outcome [10] | viability, T/C [11] 45.5% | viability, T/C [13] 90.2% | viability, T/C [14] 83.1% | viability, T/C [17] 17.8% | viability, T/C [18] 15%
6.31: pIC50 (second compound 31.6 µM)
6.88: pIC50 (second compound 10 µM)
5.24: pIC50 (second compound 1 µM)

Cn1ncnc1[C@H]1c2n[nH]c(=O)c3cc(F)cc(c23)N[C@@H]1c1ccc(F)cc1 + Cn1nnc2c(C(N)=O)ncn2c1=O
7.73: pIC50 (second compound 3.16 µM)
6.43: pIC50 (second compound 1 µM)
> 8.02: pIC50 (second compound 10 µM) | pIC50 (second compound 31.6 µM) | pIC50 (second compound 100 µM)
active: viability, T/C [3] 4.54% | viability, T/C [4] 2.08% | viability, T/C [9] 9.14% | viability, T/C [10] 11.2% | viability, T/C [11] 6.05% | viability, T/C [12] 2.46% | viability, T/C (second compound 31.6 µM, first compound 0.03 µM) 6.84% | viability, T/C [13] 3.57% | viability, T/C [14] 2.41% | viability, T/C [15] 2.88% | viability, T/C [16] 3.21% | viability, T/C (second compound 100 µM, first compound 0.00949 µM) 3.08% | viability, T/C (second compound 100 µM, first compound 0.03 µM) 2.93% | viability, T/C [17] 3.16% | viability, T/C [18] 3.31% | viability, T/C [19] 8.92% | viability, T/C [20] 3.58%
inactive: viability, T/C (second compound 1 µM, first compound 0.00949 µM) 89.2% | viability, T/C (second compound 1 µM, first compound 0.03 µM) 86.4% | viability, T/C [1] 78.1% | viability, T/C [2] 60.3% | viability, T/C (second compound 3.16 µM, first compound 0.00949 µM) 90.5% | viability, T/C (second compound 3.16 µM, first compound 0.03 µM) 9.92% | viability, T/C [5] 42.8% | viability, T/C [6] 42.2% | viability, T/C [7] 6.61% | viability, T/C [8] 5.73% | viability, T/C (second compound 10 µM, first compound 0.00949 µM) 25.7% | viability, T/C (second compound 10 µM, first compound 0.03 µM) 54.8% | viability, T/C (second compound 31.6 µM, first compound 0.00949 µM) 13.9%

CC1COCCN1c1cc(-c2ccnn2C)c2ccnc(-c3ccn[nH]3)c2n1 (stereo unspecified) + Cn1nnc2c(C(N)=O)ncn2c1=O
active: viability, T/C (second compound 1 µM, first compound 0.316 µM) 8.33% | viability, T/C (second compound 1 µM, first compound 1 µM) 2.75% | viability, T/C (second compound 1 µM, first compound 3.16 µM) 1.79% | viability, T/C (second compound 1 µM, first compound 10 µM) 1.91% | viability, T/C (second compound 3.16 µM, first compound 0.316 µM) 5.48% | viability, T/C (second compound 3.16 µM, first compound 1 µM) 2.34% | viability, T/C (second compound 3.16 µM, first compound 3.16 µM) 1.67% | viability, T/C (second compound 3.16 µM, first compound 10 µM) 1.99% | viability, T/C (second compound 10 µM, first compound 0.316 µM) 6.12% | viability, T/C (second compound 10 µM, first compound 1 µM) 2.58% | viability, T/C (second compound 10 µM, first compound 3.16 µM) 1.4% | viability, T/C (second compound 10 µM, first compound 10 µM) 1.82% | viability, T/C (second compound 31.6 µM, first compound 0.316 µM) 4.22% | viability, T/C (second compound 31.6 µM, first compound 1 µM) 1.97% | viability, T/C (second compound 31.6 µM, first compound 3.16 µM) 1.42% | viability, T/C (second compound 31.6 µM, first compound 10 µM) 1.66% | viability, T/C (second compound 100 µM, first compound 0.1 µM) 6.68% | viability, T/C (second compound 100 µM, first compound 0.316 µM) 1.75% | viability, T/C (second compound 100 µM, first compound 1 µM) 2.09% | viability, T/C (second compound 100 µM, first compound 3.16 µM) 2.84% | viability, T/C (second compound 100 µM, first compound 10 µM) 1.47%
inactive: viability, T/C (second compound 1 µM, first compound 0.0316 µM) 66% | viability, T/C (second compound 1 µM, first compound 0.1 µM) 24.1% | outcome (second compound 3.16 µM, first compound 0.0316 µM) | viability, T/C (second compound 3.16 µM, first compound 0.1 µM) 20.8% | viability, T/C (second compound 10 µM, first compound 0.0316 µM) 55.4% | viability, T/C (second compound 10 µM, first compound 0.1 µM) 12.6% | viability, T/C (second compound 31.6 µM, first compound 0.0316 µM) 56% | viability, T/C (second compound 31.6 µM, first compound 0.1 µM) 12.1% | viability, T/C (second compound 100 µM, first compound 0.0316 µM) 23.6%
> 7.50: pIC50 (second compound 100 µM)
7.42: pIC50 (second compound 3.16 µM)
7.44: pIC50 (second compound 10 µM)
7.31: pIC50 (second compound 1 µM)
7.43: pIC50 (second compound 31.6 µM)

CC[C@@]1(O)C(=O)OCc2c1cc1n(c2=O)Cc2cc3c(CN(C)C)c(O)ccc3nc2-1
active: viability, T/C (compound 0.03 µM) 2.24% [middle of 10 runs] | viability, T/C (compound 0.0949 µM) 1.86% [middle of 10 runs] | viability, T/C (compound 0.3 µM) 1.86% [middle of 10 runs]
15.8 nM [middle of 4 runs]: IC50 (run of 12/16/2019)
12 nM [middle of 5 runs]: IC50 (run of 11/07/2019)
inactive: viability, T/C (compound 0.003 µM) 98.1% [middle of 10 runs]
